Measured values: patent US10377828B2, “Combination therapy for neoplasia treatment” (Boehringer Ingelheim International GmbH, priority 2013, dated 2019)
“Also recorded” adds a separate entry of the source.

What was measured:
Assay type in all cases: cell-based, human
DUCaP cells = assay: 2D cell proliferation assay (CellTiter-Glo); details: 10% FCS-containing growth medium, 5 days, single agent or combination
Experimental: (§1) The following method was used to determine the inhibitory effect of IGF ligand-neutralizing mAbs and androgen signaling inhibitors on the growth of prostate cancer cell lines. Assays were performed in cell growth medium containing 10% serum.
(§2) Adherent cells were detached with trypsin/EDTA solution (GIBCO, #043-9031 FU), resuspended in growth medium, centrifuged, resuspended in assay medium (supplemented with 10% heat inactivated FCS and 2 mM L-glutamine) and diluted to 5,000-40,000 cells per mL. 100 μL/well cell suspension was added to each well of a sterile flat-bottom white 96-well plate (PerkinElmer, #6005280) and plates were incubated overnight in a humidified incubator set at +37° C. and 5% CO2. On the next day supernatants were aspirated and 35 μL/well assay medium was added to all wells.
(§3) Serial dilutions of IGF mAb_1 and mAb_2 (1 μM highest concentration), MDV-3100 (10 μM highest concentration), abiraterone acetate (100 μM highest concentration) were prepared on a separate plate in assay medium (no growth factors or hormones supplemented). All agents were tested as single agents or in combination. All samples were tested in triplicate wells (100 μL/well assay). Plates were incubated for 5 days in a humidified incubator at +37° C. and 5% CO2. After this incubation period, CellTiter-Glo buffer, substrate and test plates were equilibrated to RT. CellTiter-Glo is a bioluminescent assay (Promega, #G7571) designed to determine the number of viable cells in culture, in which the generation of a luminescent signal is proportional to the amount of ATP present in cells. 100 μL of freshly mixed CellTiter-Glo reagent was added to each well. After 2 min on an orbital shaker (MTS 2/4, IKA) and 10 min incubation at RT, luminescence was recorded (luminescence reader (Genios Pro, Tecan or Victor X4, Perkin Elmer), integration time 1 sec).

MDA PCa 2b cells = assay: 2D cell proliferation assay (CellTiter-Glo); details: 10% FCS-containing growth medium, 5 days, single agent or combination
Experimental: as §1, §2, §3

VCaP cells [1] = assay: 2D cell proliferation assay (CellTiter-Glo); details: 10% FCS-containing growth medium, 5 days, single agent or combination
Experimental: as §1, §2, §3

VCaP cells [2] = assay: Thymidine incorporation assay; details: 96 hours, 10 μM MDV-3100 and/or 1 μM IGF mAb_1, compared to untreated controls
Experimental: VCaP cells were treated with 1 μM of IGF mAb_1 and 10 μM of MDV-3100 and the combination of both agents and incubated as triplicates in flat-bottom 96-well plates for 96 hours at a density of 5×10^4 cells per well, in the absence of R1881. For the last 24 hours of incubation, ^3H-thymidine (0.4 μCi/well; PerkinElmer, NET355001 MC) was added. Afterwards, the plates were frozen and incubated at −20° C. for 24 h. For harvesting, the plates were thawed and 40 μL Trypsin was added to each well to detach the cell fragments. The suspension was transferred to filter plates. The plates were then washed three times with distilled water and dried at 60° C. for 3 h. 25 μL per well Microscint were added and the proliferation rate was determined by measuring thymidine incorporation (CPM; counts per minute) using a liquid scintillation counter (1450 Microbeta Wallac Trilux, Perkin-Elmer).

VCaP cells [3] = assay: Assessment of caspase 3 activity (apoptosis induction); details: 10 μM MDV-3100 and/or 1 μM mAb, up to 96 hours
Experimental: To acquire live cell images of cells undergoing caspase-3/7 mediated apoptosis upon treatment with different concentrations of MDV-3100, IGF mAb_1, and the combination of both agents, the CellPlayer™ 96-Well Kinetic Caspase-3/7 Reagent (Essen BioScience; #4440) was used. 50000 VCaP cells/100 μl/well were seeded and treated on the next day with the respective concentrations of both agents in growth medium in the absence of R1881. The Caspase-3/7 reagent was diluted to a final concentration of 5 μM in 100 μl per well of growth medium and added to the medium. The plate was placed within a microplate tray into the IncuCyte™ 2011A and 3 images per well were acquired every 4 hours for 7 days using the phase contrast and fluorescence channels.

VCaP cells [4] = assay: Cell cycle analysis using flow cytometry (propidium iodide)
Experimental: 4×10^5 VCaP cells were treated with 1 μM of IGF mAb_1 and 10 μM of MDV-3100, and the combination of both agents, and incubated in 6-well plates at 37° C. for 24 h, 48 h and 72 h. Subsequently, the supernatant was transferred to FACS tubes, adherent cells were detached with trypsin and collected in the respective FACS tubes. After centrifugation, the medium was discarded and the cell pellet was fixed in ice-cold 70% ethanol for a minimum of 2 h at 4° C. After removing the ethanol entirely, fixed cells were stained with propidium iodide (10 μg/ml; Sigma; P4864-10 mL) in a hypotonic buffer solution (0.1% sodium citrate, 0.1% (v/v) triton X-100, 100 μg/ml DNase-free RNase A) and incubated in the dark at room temperature for 30 minutes. Cells were analyzed using the Becton Dickinson FACS Canto II Flow cytometer and data was evaluated with the FACS Diva software.

[5] = test system: IGF-1R, AR, PTEN levels and AKT-Ser473 phosphorylation in VCaP, MDA PCa 2b and DUCaP cells; assay: Western blot protein analysis after 24 hours of treatment; details: 24 hours treatment
Experimental: One×10^6 and 4×10^6 cells were plated in 6-well plates and 10 cm dishes, respectively, in medium containing 10% heat-inactivated FCS and after over night incubation the cells were treated with 1 μM of MDV-3100 and 100 nM of IGF mAb_1 or a combination of antibody and AR signaling inhibitor. After 24 hours the cells were lyzed on the plates, total protein was isolated and protein concentration was determined by Bradford assay. Cell lysates were snap frozen and stored at −80° C.
(§4) Western blotting was performed loading 30-50 μg of total protein lysates on a 4-12% Bis-Tris PAG (Bio Rad) and blotting with the Bio Rad trans-Blot® Turbo system using a PVDF membrane. […] Cell cycle regulators and markers of proliferation and apoptosis were analyzed using the following antibodies: p21 Waf1/Cip1 (12D1; #2947, Cell Signaling; 1:1000), CDK2 (78B2; #2546, Cell Signaling; 1:1000), Cyclin E (C-19; sc-198, Santa Cruz; 1:1000), PCNA (#2586, Cell Signaling; 1:2000), and PARP (#9542, Cell Signaling; 1:1000).
(§5) Antibody dilutions were prepared in 5% BSA or 5% non-fat dry milk in TBS-0.5% Tween20 (TBS-T). Following washes in TBS-T membranes were incubated with a polyclonal HRP-conjugated goat anti-rabbit secondary antibody (DAKO, #P0448) for 1 hour and after further washes in TBS-T antibody reactivity was detected by means of ECL/Super ECL (GE Healthcare) and exposure on ImageQuant LAS4000. […]

[6] = test system: AKT phosphorylation, PARP cleavage, p21, CDK2, Cyclin E, PCNA in VCaP cells; assay: Western blot time course of AKT phosphorylation, apoptosis and cell cycle regulators
Experimental: One×10^6 and 4×10^6 cells were plated in 6-well plates and 10 cm dishes, respectively, in medium containing 10% […] and AR signaling inhibitor. […] Cell lysates were snap frozen and stored at −80° C.
as §4, §5

VCaP cells [7] = assay: Analysis of cellular doubling time; details: 10 μM MDV-3100, compared to untreated controls
Experimental: 3×10^5 cells/well VCaP cells were seeded in 2 mL cell culture medium per well. 24 hrs post seeding the cell culture medium was removed and replaced with DMEM+10% FCS without R1881. 24 hr following the medium change the pre-treatment wells were harvested and counted with the Beckman Coulter™ Vi-CELL XR 2.03, and 10 μM of MDV-3100 was added to the remaining cells. Four times every 24 hr VCaP cell number was determined in 3 wells for each time point. The mean value was calculated from these triplicates. To determine the generation time, following formula is used: […]

VCaP cells [8] = assay: 3D soft agar cell proliferation assay; details: single agent or combination
Experimental: IGF mAb_2 was used for the treatment of VCaP cells in FIG. 2B. FIG. 2C (IGF mAb_1) and FIG. 2D (IGF mAb_2) show the results of MDA PCa 2b cells. […] In a 3D soft agar cell proliferation assay (FIG. 2G), VCaP cells were treated with abiraterone acetate and IGF mAb_2.

Row | SMILES | effect on 2D cell proliferation (in words) (DUCaP cells) | effect on 2D cell proliferation (in words) (MDA PCa 2b cells) | effect on 2D cell proliferation (in words) (VCaP cells [1]) | reduction of proliferative activity (thymidine incorporation) (VCaP cells [2]) | induction of caspase 3 activity / apoptosis (in words) (VCaP cells [3]) | G1/G0 population (VCaP cells [4]; 10 μM MDV-3100, compared to untreated controls) | sub-G1 apoptotic cell population (VCaP cells [4]; 24 h, 48 h and 72 h, 10 μM MDV-3100 and/or 1 μM mAb) | AR protein levels [5] | IGF-1R levels [5] | p21 levels ([6]; 10 μM MDV-3100, at 8 and 24 hours) | PARP cleavage ([6]; 10 μM MDV-3100 and/or 1 μM IGF mAb_1, 8 h, 24 h, 48 h and 72 h) | cellular doubling time (generation time) (VCaP cells [7]) | effect on 3D cell proliferation (in words) (VCaP cells [8])
1 | CNC(=O)c1ccc(N2C(=S)N(c3ccc(C#N)c(C(F)(F)F)c3)C(=O)C2(C)C)cc1F [MDV-3100, 4-{3-[4-cyano-3-(trifluoromethyl)phenyl]-5,5-dimethyl-4-oxo-2-sulfanylideneimidazolidin-1-yl}-2-fluoro-N-methylbenzamide] | inhibition of cell proliferation | inhibition of cell proliferation | inhibition of cell proliferation | approximately 50% | did not induce caspase 3 activity | increased | did not induce; also recorded: does not change | slightly increased | slightly decreased | increased | did not induce | prolonged cellular doubling time | 
2 | CC(=O)O[C@H]1CC[C@@]2(C)C(=CC[C@@H]3[C@@H]2CC[C@]2(C)C(c4cccnc4)=CC[C@@H]32)C1 [abiraterone acetate] | inhibition of cell proliferation at higher concentrations | inhibition of cell proliferation at higher concentrations | inhibition of cell proliferation at higher concentrations |  |  |  |  |  |  |  |  |  | inhibition of cell proliferation at higher concentrations
